Reference: PubChem BioAssay AID1259411 (Chemical Carcinogenesis Research Information System (CCRIS), 2018)
Calls of active or inactive are those of the source. How the calls were made is not given here.

System: rodent carcinogenicity bioassays, tumor incidence
Assay: CCRIS carcinogenicity studies
Settings: Route: ORAL, Dose: 0, TWA, Dose: 0, TWA
In short: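 Archive of carcinogenicity, mutagenicity, tumor promotion and tumor inhibition results drawn from journals, NCI reports and other sources, expert-reviewed; covers 1985-2011 and is no longer updated.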

Measured: carcinogen call

CCOP(=S)(OCC)SC1OCCOC1SP(=S)(OCC)OCC (centres undefined)
inactive: Species: MOUSE, Strain/Sex: B6C3F1/FEMALE, 467, 935 PPM IN DIET, 467, 935 PPM IN DIET inactive; negative | Species: MOUSE, Strain/Sex: B6C3F1/MALE, 284, 567 PPM IN DIET, 284, 567 PPM IN DIET inactive; negative | Species: RAT, Strain/Sex: OSBORNE-MENDEL/FEMALE, 45, 90 PPM IN DIET, 45, 90 PPM IN DIET inactive; negative | Species: RAT, Strain/Sex: OSBORNE-MENDEL/MALE, 90, 180 PPM IN DIET, 90, 180 PPM IN DIET inactive; negative
